Assay results taken from US20100087523A1, “Rupestonic acid derivatives and use thereof” (priority 2008, published 2010).

What was measured:
[1] = system: B-type flu virus (jifang/97-13)
[2] = system: A-type flu virus (jifang/90-15)

Row | Compound | Activity for inhibiting B-type flu viruses SI (selection index, SI = TC50/IC50) [1] | Activity for inhibiting A-type flu viruses SI (selection index, SI = TC50/IC50) [2]
1 | C=C(C(=O)Nc1ccc(Cl)cc1)C1CCC(C)C2CC(=O)C(C)=C2C1 (stereo not shown) [A-2, N(4-chloro-phenyl)-Rupestonic amide] | 4.0 | 6.3
2 | C=C(C(=O)Nc1ccccc1Br)C1CCC(C)C2CC(=O)C(C)=C2C1 (stereo not shown) [A-5, N(2-bromo-phenyl)-Rupestonic amide] |  | 3.3
3 | C=C(C(=O)OCC)C1CCC(C)C2CC(=O)C(C)=C2C1 (stereo not shown) [B-1, Ethyl Rupestonic ester] | 3.8 | 4.9
4 | C=C(C(=O)Oc1ccc(Cl)cc1)C1CCC(C)C2CC(=O)C(C)=C2C1 (stereo not shown) [B-2, Rupestonic (p-chlorophenyl)-ester] |  | 12.6
5 | C=C(C(=O)Oc1ccccc1Cl)C1CCC(C)C2CC(=O)C(C)=C2C1 (stereo not shown) [B-3, Rupestonic (o-chlorophenyl)-ester] |  | 4.3
6 | C=C(C(=O)Oc1ccc(Br)cc1)C1CCC(C)C2CC(=O)C(C)=C2C1 (stereo not shown) [B-4, Rupestonic (p-bromophenyl)-ester] |  | 4.3
7 | C=C(C(=O)Oc1ccc(C)cc1)C1CCC(C)C2CC(=O)C(C)=C2C1 (stereo not shown) [B-9, Rupestonic (p-methylphenyl)-ester] |  | 14.3
8 | C=C(C(=O)OCc1ccc(Cl)cc1)C1CCC(C)C2CC(=O)C(C)=C2C1 (stereo not shown) [B-14, Rupestonic (p-chlorobenzyl)-ester] | 2.5 | 3.8
9 | C=C(C(=O)OCc1ccc([N+](=O)[O-])cc1)C1CCC(C)C2CC(=O)C(C)=C2C1 (stereo not shown) [B-15, Rupestonic (p-nitryl-benzyl)-ester] | 4.6 | 4.6
10 | C=C(C(=O)OCc1ccccc1Br)C1CCC(C)C2CC(=O)C(C)=C2C1 (stereo not shown) [B-17, Rupestonic (o-bromobenzyl)-ester] | 2.2 | 3.9
11 | C=C(C(=O)O)[C@H]1CC[C@H](C)[C@@H]2CC(=O)C(C)=C2C1 [Compound 1, rupestonic acid] | 9.00 | 
12 | CCOC(=O)C1=C[C@@H](OC(CC)CC)[C@H](NC(C)=O)[C@@H](N)C1 [Oseltamivir] |  | >239.1
13 | NC(=O)c1ncn([C@@H]2O[C@H](CO)[C@@H](O)[C@H]2O)n1 [Ribavirin] | 132.1 | 982.8
